From patent US7557133B2, “Caspase inhibitors containing isoxazoline ring” (LG Life Sciences Ltd., priority 2003, dated 2009)

Columns and labels:
caspase-1 = molecular target: T1, caspase-1 (Homo sapiens, UniProt P29466); experiment: Caspase-1 inhibitory effect (fluorescent substrate AcYVAD-AFC); format: biochemical; conditions: pH 7.5; 25° C., 50 μM AcYVAD-AFC, 10 nM caspase-1; read-out: Caspase-1 Kobs/[I] (converted)
T1 construct: p10 and p20 subunits (Thornberry, N. A. et al, Nature, 1992, 356, 768) were expressed in E. coli; made in house; host or cells: E. coli
T1 sequence (P29466 120-297 limits assumed): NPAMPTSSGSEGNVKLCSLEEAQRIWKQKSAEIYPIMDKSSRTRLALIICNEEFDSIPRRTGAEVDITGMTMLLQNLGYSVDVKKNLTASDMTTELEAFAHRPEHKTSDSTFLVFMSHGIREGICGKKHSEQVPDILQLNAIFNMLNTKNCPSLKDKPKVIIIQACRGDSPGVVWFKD
T1 sequence (P29466 317-404 limits assumed): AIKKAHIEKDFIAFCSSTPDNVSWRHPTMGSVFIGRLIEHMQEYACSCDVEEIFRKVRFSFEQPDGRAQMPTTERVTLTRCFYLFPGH
Protocol: (§1) Caspase-1 and caspase-8 known as cysteine proteases in the form of α2β2 were expressed, purified, and activated by modifying a method known in Thornberry, N. A. et al, Nature, 1992, 356, 768. Thornberry, N. A. Methods in Enzymology, 1994, 244, 615. Walker, N. P. C. et al. Cell, 1994, 78, 343, and caspase-9 was also purified by a similar method, and the inhibitory activity against them was tested. Briefly describing, p10 and p20 subunits (Thornberry, N. A. et al, Nature, 1992, 356, 768) were expressed in E. coli and purified by nickel column and anionic exchange chromatography to give caspase-1, caspase-8 and caspase-9. The fluorescent substrate AcYVAD-AFC for thus obtained caspase-1, AcDEVD-AFC for caspase-8, and AcLEHD-AFC for caspase-9 were used for determining specific activity of the synthesized inhibitors. The enzyme reaction was carried out at 25° C. with various concentrations of the inhibitors in a buffer solution containing 50 mM HEPES(pH 7.50), 10% (w/v) sucrose, 0.1% (w/v) CHAPS, 100 mM NaCl, 1 mM EDTA, and 10 mM DTT in the presence of 50 μM AcYVAD-AFC for 10 nM caspase-1, 50 μM AcDEVD-AFC for 2.1 nM caspase-8, and 150 μM AcLEHD-AFC for 200 nM caspase-9. The inhibitory constants Ki and Kobs of the inhibitors were determined by measuring the reaction velocity with the time lapse using a fluorescent spectrometer and by obtaining the initial rate constant. Ki was calculated from the Lineweaver Burk Plot, and Kobs from the following Equation 1. Kobs=−ln(1−At/Aoo)/t Equation 1
(§2) At means cleavate rate (%) at time t, and
(§3) Aoo means the maximum cleavage rate (%).
(§4) Spectra MAX GeminiXS Fluorescent Spectrometer of Molecular Device Co. was used at the excitation wavelength of 405 nm and the emission wavelength of […].

caspase-8 = molecular target: T2, caspase-8 (Homo sapiens, UniProt Q14790); experiment: Caspase-8 inhibitory effect (fluorescent substrate AcDEVD-AFC); format: biochemical; conditions: pH 7.5; 25° C., 50 μM AcDEVD-AFC, 2.1 nM caspase-8; read-out: Caspase-8 Kobs/[I] (converted)
T2 construct: p10 and p20 subunits (Thornberry, N. A. et al, Nature, 1992, 356, 768) were expressed in E. coli; made in house; host or cells: E. coli
T2 sequence (Q14790 217-374 limits assumed, species assumed): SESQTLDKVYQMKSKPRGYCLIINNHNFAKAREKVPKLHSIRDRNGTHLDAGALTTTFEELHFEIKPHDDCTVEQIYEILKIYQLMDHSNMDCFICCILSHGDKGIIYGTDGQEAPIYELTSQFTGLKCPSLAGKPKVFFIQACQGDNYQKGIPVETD
T2 sequence (Q14790 385-479 limits assumed, species assumed): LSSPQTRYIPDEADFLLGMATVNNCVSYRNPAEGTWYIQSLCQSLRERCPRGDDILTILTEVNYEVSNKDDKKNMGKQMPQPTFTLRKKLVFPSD
Protocol: as §1, §2, §3, §4

[1] = system: Jurkat cell (ATCC TIB-152); experiment: Jurkat cell apoptosis by Fas antibody, WST-1 method; format: cell-based; conditions: Homo sapiens, Jurkat, apoptosis using Fas antibody, WST-1
Protocol: The […] inhibitory activity of the inhibitors was determined by subjecting Jurkat cell (ATCC TIB-152) to apoptosis using Fas antibody (Upstate Biotech 05-201) and by detecting the color change according to the WST-1 method known in Francoeur A. M. and Assalian A. (1996) Biochemica 3, 19-25 to observe the amount of alive Jurkat cells when the cells were treated by the inhibitor. Spectra MAX 340 Spectrometer of Molecular Device Co. was used at the absorbance wavelength of 440 nm.

caspase-9 = molecular target: T3, caspase-9 (Homo sapiens, UniProt P55211); experiment: Caspase-9 inhibitory effect (fluorescent substrate AcLEHD-AFC); format: biochemical; conditions: pH 7.5; 25° C., 150 μM AcLEHD-AFC, 200 nM caspase-9; read-out: Caspase-9 Kobs/[I] (converted)
T3 construct: p10 and p20 subunits (Thornberry, N. A. et al, Nature, 1992, 356, 768) were expressed in E. coli; made in house; host or cells: E. coli
T3 sequence (P55211 1-315 limits assumed): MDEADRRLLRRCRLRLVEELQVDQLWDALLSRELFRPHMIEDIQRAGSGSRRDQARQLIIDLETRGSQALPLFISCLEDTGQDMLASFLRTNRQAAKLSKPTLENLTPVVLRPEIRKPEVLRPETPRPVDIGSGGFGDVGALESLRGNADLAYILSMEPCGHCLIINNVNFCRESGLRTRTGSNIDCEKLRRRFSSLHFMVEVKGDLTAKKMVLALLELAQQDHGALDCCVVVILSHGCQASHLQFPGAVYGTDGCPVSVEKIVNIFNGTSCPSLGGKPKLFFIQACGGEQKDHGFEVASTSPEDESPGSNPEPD
T3 sequence (P55211 331-416 limits assumed): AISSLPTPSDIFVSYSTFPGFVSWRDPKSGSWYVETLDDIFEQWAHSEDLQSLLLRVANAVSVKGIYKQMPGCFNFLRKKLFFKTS
Protocol: as §1, with “The enzyme reaction was carried out at 25° C. with various concentrations of the inhibitors in a buffer solution containing 50 mM HEPES(pH 7.50), 10% (w/v) sucrose, 0.1% (w/v) CHAPS, 100 mM NaCl, 1 mM EDTA, and 10 mM DTT in the presence of 50 μM AcYVAD-AFC for 10 nM caspase-1, 50 μM AcDEVD-AFC for 2.1 nM caspase-8, and 150 μM AcLEHD-AFC for 200 nM caspase-9.” left out, “Kobs=−ln(1−At/Aoo)/t Equation 1” left out

| Structure (SMILES) | kinact/KI (caspase-1) [M⁻¹ s⁻¹] | kinact/KI (caspase-8) [M⁻¹ s⁻¹] | IC50 [1] [µM] | kinact/KI (caspase-9) [M⁻¹ s⁻¹] |
| --- | --- | --- | --- | --- |
| CCC1(C(=O)N[C@@H](CC(=O)O)C(=O)COc2c(F)c(F)cc(F)c2F)CC(c2ccccc2)=NO1 (stereo partly drawn) [Icc, (3S)-3-{[(5-ethyl-3-phenyl-4,5-dihydro-5-isoxazolyl)carbonyl]amino}-4-oxo-5-(2,3,5,6-tetrafluorophenoxy)pentanoic acid] | 3170 | 550 | 22.5 |  |
| CCC1(C(=O)N[C@@H](CC(=O)O)C(=O)COc2c(F)c(F)cc(F)c2F)CC(COc2ccc(Cl)c3ccccc23)=NO1 (stereo partly drawn) [Iqq, (3S)-3-{[(3-{[(4-Chloro-1-naphthyl)oxy]methyl}-5-ethyl-4,5-dihydro-5-isoxazolyl)carbonyl]amino}-4-oxo-5-(2,3,5,6-tetrafluorophenoxy)pentanoic acid] | 55000 | 2330 | 37 |  |

Compounds with a lower IC50 [1], results first:

| kinact/KI (caspase-1) [M⁻¹ s⁻¹] | kinact/KI (caspase-8) [M⁻¹ s⁻¹] | IC50 [1] [µM] | kinact/KI (caspase-9) [M⁻¹ s⁻¹] | Structure (SMILES) |
| --- | --- | --- | --- | --- |
| 38300 | 2830 | 3.5 |  | CCC1(C(=O)N[C@@H](CC(=O)O)C(=O)COc2c(F)c(F)cc(F)c2F)CC(COc2cccc3ccccc23)=NO1 (stereo partly drawn) [Ipp, (3S)-3-[({5-Ethyl-3-[(1-naphthyloxy)methyl]-4,5-dihydro-5-isoxazolyl]carbonyl)amino]-4-oxo-5-(2,3,5,6-tetrafluorophenoxy)pentanoic acid] |
| 45000 | 25000 | 0.17 | 5330 | CCC1(C(=O)NC(CC(=O)O)C(=O)CF)CC(c2nccc3ccccc23)=NO1 (stereo not shown) [Igg, 3-({[5-Ethyl-3-(1-isoquinolinyl)-4,5-dihydro-5-isoxazolyl]carbonyl}amino)-5-fluoro-4-oxopentanoic acid] |
| 5170 | 3170 | 4.25 |  | CCC1(C(=O)N[C@@H](CC(=O)O)C(=O)COc2c(F)c(F)cc(F)c2F)CC(c2cccc3ccccc23)=NO1 (stereo partly drawn) [Idd, (3S)-3-({[5-ethyl-3-(1-naphthyl)-4,5-dihydro-5-isoxazolyl]carbonyl}amino)-4-oxo-5-(2,3,5,6-tetrafluorophenoxy)pentanoic Acid] |
